pIC50: −log10 of the molar value. Where “and” joins values, the source holds several entries; their conditions need not be identical. Equal entries are not always repeated. Entries after “also recorded” stand apart in the source; their conditions may differ.
Key:
[1] = test system: cancer cell lines (HCT116, NCI-H460, SiHa); test: In vitro anticancer activity, statements over all cell lines tested; settings: 72 h compound exposure
Experimental: (§1) HCT116 (colon cancer cells) and NCI-H460 (large cell lung carcinoma) cells were supplied by ATCC, while SiHa cells (cervical cancer) were supplied by Dr. David Cowan, Ontario Cancer Institute, Canada. Cells were maintained in αMEM (Life Technologies) with 5% FCS (fetal calf serum from Moregate Biotech) at 37° C. in a humidified incubator with 5% CO2. Cells were seeded at the appropriate density and allowed to settle for 24 hours, before the compounds (in 0.5% DMSO at the highest concentration) were added at 3-fold serial dilutions. After 72 h compound exposure, the cells were fixed with 10% TCA (trichloroacetic acid from Merck Millipore) for 1 h at 4° C., then washed before addition of 50 μl of 0.4% sulforhodamine B solution (Sigma Aldrich) for 30 min at room temperature in the dark. After washing with 1% acetic acid, the aminoxanthene dye was solubilised with 100 μl/well unbuffered Tris base (10 mM; Serva) on an orbital shaker for at least 30 min in the dark. The optical density was measured on a BioTek EL808 microplate reader at an absorbance of 490 and 450 nm (reference wavelength) and was used to determine the percentage of cell-growth inhibition. IC50 values were calculated with SigmaPlot12.5 using a three-parameter logistic sigmoidal dose-response curve between the calculated growth inhibition and the compound concentration.

[2] = test system: SiHa cells (cervical cancer); test: In vitro anticancer activity, sulforhodamine B assay; format: cell-based; settings: 72 h compound exposure, mean of 3 independent experiments
Experimental: as §1

[3] = test system: NCI-H460 (large cell lung carcinoma) cells; test: as above; format: cell-based; settings: NCI-H460, 72 h compound exposure, mean of 3 independent experiments
Experimental: as §1

[4] = test system: HCT116 (colon cancer cells); test: as above; format: cell-based; settings: HCT116, 72 h compound exposure, mean of 3 independent experiments
Experimental: as §1

| SMILES | cytotoxicity to cancer cell lines [1] | Solubility in water (Solubility in water) [mM] | pIC50 [2] | pIC50 [3] | pIC50 [4] | solubility (Solubility in water; water) [mM] | pIC50 ([2]; Homo sapiens) | pIC50 ([3]; Homo sapiens) | pIC50 ([4]; Homo sapiens, HCT-116) |
| --- | --- | --- | --- | --- | --- | --- | --- | --- | --- |
| CC[N+](CC)(CC)CC.[C-]#[O+].[C-]#[O+].[C-]#[O+].[Cl-].[Cl-].[Cl-].[Ru+2] [Compound 2, [Et4N][Ru(CO)3Cl3]] | non-cytotoxic in the investigated concentration range; also recorded: not active against any of the cancer cell lines | 6.78 | < 2.80 | < 2.80 | < 2.80 | – | – | – | – |
| O=C(N=c1ccn(Cc2ccccc2)cc1)c1ccccn1.[C-]#[O+].[C-]#[O+].[C-]#[O+].[C-]#[O+].[C-]#[O+].[C-]#[O+].[Cl][Ru+].[Cl][Ru-]([Cl])[Cl] [pH-CORM-1, [Ru(CO)3Cl(L)][Ru(CO)3Cl3]] | moderately cytotoxic | 1.56 | 3.83 | 3.79 | ≥ 3.92 and 3.92 | – | – | – | – |
| Cl.O=C(Nc1cc[n+](Cc2ccccc2)cc1)c1ccccn1 [[HL]Cl, 1-Benzyl-4-(picolinamido)pyridinium chloride] | – | – | – | – | – | 12.3 | 4.52 | 4.27 | 4.70 |
| O=C(Nc1cc[n+](Cc2ccccc2)cc1)c1ccccn1.[C-]#[O+].[C-]#[O+].[C-]#[O+].[Cl][Ru-]([Cl])[Cl] [Compound 1, [HL][Ru(CO)3Cl3]] | most active compound in all cancer cell lines tested; also recorded: moderately cytotoxic | 1.45 | 4.59 | 4.14 | 4.62 | – | – | – | – |

From patent US20180273564A1, “CARBON MONOXIDE RELEASING MOLECULES” (AUCKLAND UNISERVICES LIMITED, priority 2015, published 2018)
